{
  "source": "paper PMC3651789",
  "about": "(Current biology : CB, 2013)",
  "key": {"AEX-2/GPCR": {"target": "T1, AEX-2/GPCR (Caenorhabditis elegans, UniProt G5ECD9)", "T1 sequence (G5ECD9 1-321)": "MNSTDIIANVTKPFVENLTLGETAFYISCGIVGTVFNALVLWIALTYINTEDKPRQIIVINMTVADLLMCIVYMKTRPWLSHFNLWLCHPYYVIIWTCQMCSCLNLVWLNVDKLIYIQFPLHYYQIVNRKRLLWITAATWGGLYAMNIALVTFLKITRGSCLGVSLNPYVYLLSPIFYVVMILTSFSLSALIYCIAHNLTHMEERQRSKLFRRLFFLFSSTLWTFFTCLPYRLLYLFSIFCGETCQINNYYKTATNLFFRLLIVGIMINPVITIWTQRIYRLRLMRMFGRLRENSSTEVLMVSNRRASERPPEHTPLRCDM", "assay": "In vitro cellular assay for AEX-2/GPCR activation by NLP-40-derived peptides", "type": "cell-based, C. elegans", "conditions": "for activation of AEX-2/GPCR (in words): CHO/mtAEQ/Gα16 cells transfected with AEX-2/GPCR, aequorin luminescence, all concentrations tested"}, "[1]": {"tested_on": "enteric muscle contractions (Exp)", "assay": "Enteric muscle contraction", "type": "in vivo, C. elegans", "conditions": "peptide injection; data not shown"}},
  "data": [
    {"substance": "APSAPAGLEEKL [NLP-40 P1]", "values": [
      {"measurement": "activation of AEX-2/GPCR (in words)", "setting": "AEX-2/GPCR", "result": "failed to activate AEX-2/GPCR at all concentrations tested"}
    ]},
    {"substance": "MVAWQPM [NLP-40 P3-1]", "values": [
      {"measurement": "activation of AEX-2/GPCR (in words)", "setting": "AEX-2/GPCR", "result": "able to activate AEX-2/GPCR"},
      {"measurement": "relative potency at AEX-2/GPCR (in words)", "setting": "AEX-2/GPCR; CHO/mtAEQ/Gα16 cells, NLP-40 P3-1 compared to NLP-40 P3-2", "result": "more potent ligand for AEX-2/GPCR"},
      {"measurement": "induction of enteric muscle contractions (Exp) (in words)", "setting": "[1]", "result": "failed to induce robust enteric muscle contractions (Exp)"}
    ]},
    {"substance": "VAWQPM [NLP-40 P3-2]", "values": [
      {"measurement": "activation of AEX-2/GPCR (in words)", "setting": "AEX-2/GPCR", "result": "able to activate AEX-2/GPCR"}
    ]}
  ]
}
